The values that follow come from the supplement of paper PMC10307832.

Holding throughout (assay): relative viability (nuclei count vs DMSO), 5 days (fraction); higher = more cells survive
Compound in the test “Ibrutinib + Vorinostat”: C=CC(=O)N1CCC[C@@H](n2nc(-c3ccc(Oc4ccccc4)cc3)c3c(N)ncnc32)C1 [Ibrutinib] + O=C(CCCCCCC(=O)Nc1ccccc1)NO [Vorinostat] (partner 1 µM)
Summed up: (§1)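 Cells from lung cancer lines were seeded into 1536-well plates and, one day later, dosed by pin tool. Treatments were either a single drug or a fixed dose of an anchor drug with five library-drug doses (not always all listed) in √10 steps. After 5 days, nuclei were stained in a one-step fixation (final 0.05% Triton X-100, 1% formaldehyde, 1 ug/ml Hoechst) and counted on 4× images, and relative viability is the treated-to-vehicle nuclei ratio, as the median of duplicate plates.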

Compound in the test “Ibrutinib + Foretinib”: C=CC(=O)N1CCC[C@@H](n2nc(-c3ccc(Oc4ccccc4)cc3)c3c(N)ncnc32)C1 [Ibrutinib] + COc1cc2c(Oc3ccc(NC(=O)C4(C(=O)Nc5ccc(F)cc5)CC4)cc3F)ccnc2cc1OCCCN1CCOCC1 [Foretinib] (partner 0.25 µM)
Summed up:
as §1

Compound in the test “PAC-1 + Pictilisib”: C=CCc1cccc(/C=N/NC(=O)CN2CCN(Cc3ccccc3)CC2)c1O [PAC-1] + CS(=O)(=O)N1CCN(Cc2cc3nc(-c4cccc5[nH]ncc45)nc(N4CCOCC4)c3s2)CC1 [Pictilisib] (partner 1 µM)
The essentials:
as §1

Compound in the test “BMX-IN-1 + Luminespib”: C=CC(=O)Nc1cc(-n2c(=O)ccc3cnc4ccc(-c5ccc(NS(C)(=O)=O)cc5)cc4c32)ccc1C [BMX-IN-1] + CCNC(=O)c1noc(-c2cc(C(C)C)c(O)cc2O)c1-c1ccc(CN2CCOCC2)cc1 [Luminespib] (partner 0.01 µM)
Summed up:
as §1

With SK-MES-1, the relative viability stood at 1.16 with Ibrutinib + Vorinostat (first compound 0.005 µM); 1.05 with Ibrutinib + Vorinostat (first compound 0.01581 µM); 1.07 with Ibrutinib + Vorinostat (first compound 0.05 µM); 1.26 in the test with Ibrutinib + Vorinostat (first compound 0.1581 µM); 0.747 in the test with Ibrutinib + Vorinostat (first compound 0.5 µM); 1.03 in the test with Ibrutinib + Foretinib (first compound 0.005 µM). Further, the relative viability amounted to 0.884 with Ibrutinib + Foretinib (first compound 0.01581 µM); 0.841 with Ibrutinib + Foretinib (first compound 0.05 µM); 0.989 in the test with Ibrutinib + Foretinib (first compound 0.1581 µM); 0.582 with Ibrutinib + Foretinib (first compound 0.5 µM); 0.336 with PAC-1 + Pictilisib (first compound 0.02 µM); 0.297 with PAC-1 + Pictilisib (first compound 0.06325 µM). Further, the relative viability with PAC-1 + Pictilisib (first compound 0.2 µM) came to 0.336; with PAC-1 + Pictilisib (first compound 2 µM), 0.322; with BMX-IN-1 + Luminespib (first compound 0.02 µM) it was 0.831; with BMX-IN-1 + Luminespib (first compound 0.2 µM), 0.879; in the test with BMX-IN-1 + Luminespib (first compound 0.6325 µM) it was 0.835; with BMX-IN-1 + Luminespib (first compound 2 µM), 0.921.
